Results taken from article PMC7217186 (The Febs Journal, 2019).

Biological target: T1, TKS (tetraketide synthase) (Cannabis sativa, UniProt B1Q2B6)
T1 construct: gene OLS; codon-optimised gene in pETM11, N-terminal TEV-cleavable His6 tag, cut from wild type after purification; E. coli BL21(DE3); dimer (two dimers in asymmetric unit); Cys157 oxidised to sulfinic acid in crystal
Test: LC-MS of products (olivetol, PDAL, HTAL)
Type: biochemical
Settings: 10 μM hexanoyl-CoA, 30 μM malonyl-CoA, 10 μM enzyme, 25 mM Tris pH 8, 150 mM NaCl, 5% glycerol, 25 °C, overnight

T1 sequence (B1Q2B6 2-385): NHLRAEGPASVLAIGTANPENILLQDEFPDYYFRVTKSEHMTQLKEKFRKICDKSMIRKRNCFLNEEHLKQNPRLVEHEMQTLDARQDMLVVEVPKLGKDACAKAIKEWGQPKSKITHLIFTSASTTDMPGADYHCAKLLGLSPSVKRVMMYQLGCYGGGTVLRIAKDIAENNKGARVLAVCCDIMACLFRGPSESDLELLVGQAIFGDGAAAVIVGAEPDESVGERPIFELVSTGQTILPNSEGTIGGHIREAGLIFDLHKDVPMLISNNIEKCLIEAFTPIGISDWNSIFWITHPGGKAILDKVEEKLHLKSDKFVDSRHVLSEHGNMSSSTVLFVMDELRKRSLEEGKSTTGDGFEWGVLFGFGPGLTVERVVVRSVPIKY

In the case of `CCCCCC(=O)SCCNC(=O)CCNC(=O)[C@H](O)C(C)(C)COP(=O)(O)OP(=O)(O)OC[C@H]1O[C@@H](n2cnc3c(N)ncnc32)[C@H](O)[C@@H]1OP(=O)(O)O` [hexanoyl-CoA], the “LC-MS of products (olivetol, PDAL, HTAL)” value is reported as “A major product generated by TKS with malonyl‐CoA and hexanoyl‐CoA was identified as olivetol”.

`CC(C)(COP(=O)(O)OP(=O)(O)OC[C@H]1O[C@@H](n2cnc3c(N)ncnc32)[C@H](O)[C@@H]1OP(=O)(O)O)[C@@H](O)C(=O)NCCC(=O)NCCSC(=O)CC(=O)O` [malonyl-CoA] was tested, and the “LC-MS of products (olivetol, PDAL, HTAL)” value was “A major product generated by TKS with malonyl‐CoA and hexanoyl‐CoA was identified as olivetol”.
